Results as given in ChEMBL document CHEMBL4477238, “Ligand binding cooperativity: Bioisosteric replacement of CO with SO2 among thrombin inhibitors” (Bioorg Med Chem Lett, 2016).

Target: Prothrombin (Homo sapiens, UniProt P00734)
Assay: Inhibition of human alpha-thrombin using chromogenic substrate Pefachrome tPa measured every second for 20 mins by spectrophotometry

| Compound | Ki |
| --- | --- |
| CC(C)CC(=O)N1CCC[C@H]1C(=O)NCc1ccc(C(=N)N)cc1 | 4 µM |
| N=C(N)c1ccc(CNC(=O)[C@@H]2CCCN2C(=O)Cc2ccccc2)cc1 | 0.2 µM |
| CC(C)CS(=O)(=O)N1CCC[C@H]1C(=O)NCc1ccc(C(=N)N)cc1 | 3.4 µM |
| N=C(N)c1ccc(CNC(=O)[C@@H]2CCCN2S(=O)(=O)Cc2ccccc2)cc1 | 2.5 µM |
| CC(C)CCS(=O)(=O)N1CCC[C@H]1C(=O)NCc1ccc(C(=N)N)cc1 | 2.7 µM |

The next lines start with the values.

| Ki | Compound |
| --- | --- |
| 117 µM | CCS(=O)(=O)N1CCC[C@H]1C(=O)NCc1ccc(C(=N)N)cc1 |
| 12 µM | CCCS(=O)(=O)N1CCC[C@H]1C(=O)NCc1ccc(C(=N)N)cc1 |
